Data on 11 compounds can be found in patent US9045445B2, “Glycine transporter-1 inhibitors, methods of making them, and uses thereof” (Albany Molecular Research, Inc., priority 2010, dated 2015).

Structures can show the parent of a compound that is named as a salt. Where two headings read alike, the source gives them in different places.

Series [1] concerns the target T1, glycine transporter-2 (GlyT-2) (Homo sapiens, UniProt Q9Y345).
T1 construct: expressed in transfected cells
T1 sequence (Q9Y345 1-797): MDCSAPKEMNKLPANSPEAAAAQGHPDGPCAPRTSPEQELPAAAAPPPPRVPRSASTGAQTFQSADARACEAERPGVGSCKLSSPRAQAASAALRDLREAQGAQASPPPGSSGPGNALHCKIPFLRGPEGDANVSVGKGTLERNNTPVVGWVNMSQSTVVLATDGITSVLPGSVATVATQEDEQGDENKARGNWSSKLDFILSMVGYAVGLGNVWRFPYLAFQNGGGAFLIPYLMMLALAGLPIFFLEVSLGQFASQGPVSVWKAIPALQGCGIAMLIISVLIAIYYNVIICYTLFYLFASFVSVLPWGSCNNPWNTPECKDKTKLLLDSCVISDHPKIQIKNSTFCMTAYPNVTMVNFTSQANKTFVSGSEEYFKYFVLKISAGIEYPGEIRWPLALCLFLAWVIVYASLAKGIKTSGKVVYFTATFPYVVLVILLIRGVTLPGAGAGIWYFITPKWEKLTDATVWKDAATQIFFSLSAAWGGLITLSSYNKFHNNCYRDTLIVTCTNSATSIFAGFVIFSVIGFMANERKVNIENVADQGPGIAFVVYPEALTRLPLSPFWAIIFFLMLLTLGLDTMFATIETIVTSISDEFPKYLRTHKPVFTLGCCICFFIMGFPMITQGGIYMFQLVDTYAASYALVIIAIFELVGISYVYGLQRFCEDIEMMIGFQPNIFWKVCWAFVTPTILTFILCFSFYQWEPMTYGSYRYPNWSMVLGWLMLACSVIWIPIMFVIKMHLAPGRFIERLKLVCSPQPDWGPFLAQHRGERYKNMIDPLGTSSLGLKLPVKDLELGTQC
The experiment in a line: [14C]glycine uptake assay in HEK-GlyT-2 transfected cells. Format: cell-based. The following applies: HEK-GlyT-2 cells.

Series [2] concerns cerebrospinal fluid (CSF) glycine levels. The experiment in a line: CSF-glycine assay after oral administration. The format is in vivo. The conditions noted are these: Rattus norvegicus, po, rats, read-out: % CSF Glycine Increase versus Vehicle Control. The procedure: This study measured cerebrospinal fluid (CSF) glycine levels after oral administration of test compound. […] After the specified pretreatment time, the rats were euthanized by CO2 asphyxiation and a hypodermic needle was inserted into the cisterna magna to withdraw 50-100 μl of CSF. The CSF was diluted with deuterated-glycine as an internal standard glycine was quantified by LC/MS/MS.

Series [3] deals with T2, glycine transporter-1 (GlyT-1) (Homo sapiens, UniProt P48067).
T2 construct: JAR cells (ATCC#HTB-144), which endogenously express GlyT-1; host or cells: JAR human choriocarcinoma cells
T2 sequence (P48067 1-706): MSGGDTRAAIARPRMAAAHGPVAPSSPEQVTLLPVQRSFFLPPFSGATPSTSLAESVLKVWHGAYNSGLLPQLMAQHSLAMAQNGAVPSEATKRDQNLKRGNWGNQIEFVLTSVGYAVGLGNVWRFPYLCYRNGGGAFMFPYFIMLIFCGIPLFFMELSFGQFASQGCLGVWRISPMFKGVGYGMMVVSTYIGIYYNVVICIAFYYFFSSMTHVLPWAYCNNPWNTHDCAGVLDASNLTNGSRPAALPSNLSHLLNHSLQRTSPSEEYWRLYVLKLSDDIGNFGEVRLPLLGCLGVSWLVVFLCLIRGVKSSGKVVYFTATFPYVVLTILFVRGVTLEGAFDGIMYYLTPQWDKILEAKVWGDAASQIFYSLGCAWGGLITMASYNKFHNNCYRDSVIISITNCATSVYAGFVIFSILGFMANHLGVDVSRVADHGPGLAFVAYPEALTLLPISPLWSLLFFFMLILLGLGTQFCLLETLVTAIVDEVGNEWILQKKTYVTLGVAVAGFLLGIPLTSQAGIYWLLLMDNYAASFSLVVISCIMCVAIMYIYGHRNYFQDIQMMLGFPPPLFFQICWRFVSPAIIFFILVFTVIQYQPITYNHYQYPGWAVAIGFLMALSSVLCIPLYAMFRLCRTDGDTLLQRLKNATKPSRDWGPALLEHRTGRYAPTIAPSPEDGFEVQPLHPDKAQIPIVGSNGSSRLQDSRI
As to the kind of experiment: [14C]glycine uptake assay in JAR cells endogenously expressing GlyT-1 (scintillation proximity). Format: cell-based. The following applies: JAR cells, [14C]glycine 5 μM, 3 hour incubation; read-out: GlyT-1 IC50. In a few lines: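 Human choriocarcinoma JAR cells (endogenous GlyT-1) attached overnight, then pre-incubated 10 min at room temperature with compound in pH 7.4 Hepes uptake buffer containing 5 mM alanine and 0.75% DMSO. Uptake of 5 μM [14C]glycine over 3 h at 37 °C read by scintillation proximity; IC50 from four-parameter fit of nine-point curves.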
Background: Scintillation proximity formats need no separation of bound from free tracer.

As usually defined, the IC50 is the point on the concentration scale where inhibition reaches its midpoint. As to `CCCS(=O)(=O)N1CCN(C2(CNC(=O)c3c(F)cccc3F)CCC(F)(F)CC2)CC1` [compound 130, N-((4,4-Difluoro-1-(4-(propylsulfonyl)piperazin-1-yl)cyclohexyl)methyl)-2,6-difluorobenzamide Hydrochloride], in series [1], the IC50 was over 75000 nM. Further, in series [2] (0.5 h, pretreatment 30 mins), the change in vivo at 10 mg/kg worked out at 148%, the change in vivo at 30 mg/kg came to 185% and the change in vivo at 75 mg/kg is 201%. Moreover, in series [2] (2 h, pretreatment 120 mins), the change in vivo at 10 mg/kg turned out to be 123%, the change in vivo at 30 mg/kg was 125% and the change in vivo at 75 mg/kg came out at 201%. In addition, in series [3], the IC50 is 67 nM.

The term melting point denotes the temperature, or range, at which the solid turns liquid. As to `CC(O)CS(=O)(=O)N1CCN(C2(CNC(=O)c3ccc(C(F)(F)F)cc3Cl)CCC(F)(F)CC2)CC1.Cl` (single isomer, unassigned; enantiomer a) [compound 278, (Enantiomer A)-2-Chloro-N-((4,4-difluoro-1-(4-(2-hydroxypropylsulfonyl)piperazin-1-yl)cyclohexyl)methyl)-4-(trifluoromethyl) benzamide Hydrochloride], the melting point is 80 to 82 °C. In series [3], the IC50 is 24 nM.

`CC(=O)CS(=O)(=O)N1CCN(C2(CNC(=O)c3ccc(C(F)(F)F)cc3Cl)CCC(F)(F)CC2)CC1` (as salt: hydrochloride) [compound 280, 2-Chloro-N-((4,4-difluoro-1-(4-(2-oxopropylsulfonyl)piper-azin-1-yl)cyclohexyl)methyl)-4-(trifluoromethyl) benzamide Hydrochloride] gave a melting point of 65 to 67 °C.

Compound `Cn1cc(S(=O)(=O)N2CCN(C3(CNC(=O)c4ccc(C(F)(F)F)cc4C(F)(F)F)CCOCC3)CC2)nn1` (as salt: hydrochloride) [compound 276, N-((4-(4-(1-Methyl-1H-1,2,3-triazol-4-ylsulfonyl)piperazin-1-yl)tetrahydro-2H-pyran-4-yl)methyl)-2,4-bis(trifluoromethyl) benzamide Hydrochloride] displayed a melting point of 145 °C.

Take `Cl.Cn1cnc(S(=O)(=O)N2CCN(C3(CNC(=O)c4ccc(C(F)(F)F)cc4Cl)CCC(F)(F)CC3)CC2)n1` [compound 281, 2-Chloro-N-((4,4-difluoro-1-(4-(1-methyl-1H-1,2,4-triazol-3-ylsulfonyl)piperazin-1-yl)cyclohexyl)methyl)-4-(trifluoromethyl)benzamide Hydrochloride]: the melting point fell in the range of 180 to 185 °C. In series [3], the IC50 worked out at 284 nM.

As for `Cl.Cn1cc(S(=O)(=O)N2CCN(C3(CNC(=O)c4ccc(C(F)(F)F)cc4Cl)CCOCC3)CC2)nn1` [compound 277, 2-Chloro-N-((4-(4-(1-methyl-1H-1,2,3-triazol-4-ylsulfonyl)piperazin-1-yl)tetrahydro-2H-pyran-4-yl)methyl)-4-(trifluoromethyl)benzamide Hydrochloride], the melting point stood at 147 °C. Besides, the IC50 in series [3] turned out to be 8 nM.

Take `Cn1cc(S(=O)(=O)N2CCN(C3(CNC(=O)c4ccc(F)cc4Cl)CCC(F)(F)CC3)CC2)nn1` [compound 192, 2-Chloro-N-((4,4-difluoro-1-(4-(1-methyl-1H-1,2,3-triazol-4-ylsulfonyl)piperazin-1-yl)cyclohexyl)methyl)-4-fluorobenzamide Hydrochloride]: the IC50 in series [1] is over 75000 nM; in series [3], 1 nM. In addition, the change in vivo at 3 mg/kg in series [2] (0.5 h, pretreatment 30 mins) was determined as 173%; in series [2] (2 h, pretreatment 120 mins), 199%. The change in vivo at 10 mg/kg in series [2] (0.5 h, pretreatment 30 mins) worked out at 195%; in series [2] (2 h, pretreatment 120 mins) it was 311%.

For `CC(O)CS(=O)(=O)N1CCN(C2(CNC(=O)c3ccc(C(F)(F)F)cc3Cl)CCC(F)(F)CC2)CC1` (stereo not shown) [compound 252, 2-Chloro-N-((4,4-difluoro-1-(4-(2-hydroxypropylsulfonyl)piperazin-1-yl)cyclohexyl)methyl)-4-(trifluoromethyl)benzamide Hydrochloride], the IC50 was over 75000 nM in series [1] and 33 nM in series [3]. In series [2] (2 h, pretreatment 120 mins), the change in vivo at 30 mg/kg turned out to be 207%.

Regarding `Cn1cc(S(=O)(=O)N2CCN(C3(CNC(=O)c4ccc(C(F)(F)F)cc4Cl)CCC(F)(F)CC3)CC2)nn1` [compound 193, 2-Chloro-N-((4,4-difluoro-1-(4-(1-methyl-1H-1,2,3-triazol-4-ylsulfonyl)piperazin-1-yl)cyclohexyl)methyl)-4-(trifluoromethyl)benzamide Hydrochloride], the IC50 was over 75000 nM in series [1] and 1 nM in series [3]. The change in vivo at 10 mg/kg in series [2] (2 h, pretreatment 120 mins) was 282%; in series [2] (6 h, pretreatment 360 mins) it was 303%. Moreover, the change in vivo at 30 mg/kg stood at 279% in series [2] (2 h, pretreatment 120 mins) and 355% in series [2] (6 h, pretreatment 360 mins).

Compound `CC(NC(=O)c1ccc(F)cc1Cl)C1(N2CCN(S(=O)(=O)c3cn(C)nn3)CC2)CCC(F)(F)CC1` (stereo not shown) [compound 219, 2-Chloro-N-(1-(4,4-difluoro-1-(4-(1-methyl-1H-1,2,3-triazol-4-ylsulfonyl)piperazin-1-yl)cyclohexyl)ethyl)-4-fluorobenzamide Hydrochloride] came in with an IC50 in series [1] of over 75000 nM. In series [2] (2 h, pretreatment 120 mins), the change in vivo at 3 mg/kg was 181% and the change in vivo at 10 mg/kg turned out to be 310%. Moreover, in series [3], the IC50 came out at 3 nM.

Compound `Cn1cc(S(=O)(=O)N2CCN(C3(CNC(=O)c4c(F)cccc4F)CCC(F)(F)CC3)CC2)nn1` [compound 189, N-((4,4-Difluoro-1-(4-(1-melhyl-1H-1,2,3-triazol-4-ylsulfonyl)piperazin-1-yl)cyclohexyl)methyl)-2,6-difluorobenzamide Hydrochloride] yielded an IC50 in series [1] of over 75000 nM. Also, in series [2] (0.5 h, pretreatment 30 mins), the change in vivo at 10 mg/kg was 158%, the change in vivo at 30 mg/kg amounted to 219% and the change in vivo at 100 mg/kg was found to be 281%. Also, in series [2] (2 h, pretreatment 120 mins), the change in vivo at 10 mg/kg was 203%, the change in vivo at 30 mg/kg worked out at 270% and the change in vivo at 100 mg/kg is 288%. The IC50 in series [3] was 5 nM.
